This is an account of results in EP0043811A1, “Indolo-naphthyridines and their use as medicaments” (OMNICHEM Société anonyme, priority 1980, dated 1982).

Series [1] can be described thus: Acute toxicity (LD50) in mice, intravenous. Conditions: mouse, in vivo, read-out: DL50 iv. The text has this: Les composés de l'invention ont été administrés sous forme de chlorhydrate par voie intraveineuse à des souris de souche Charles River. Les doses létales 50 % (DL50) ont été déterminées graphiquement selon la méthode de Lichtfield et Wilcoxon (J. Pharmacol.Exp. Thérap. […]).

In series [2] the test system is souris, de souche Charles River. Briefly: Hypobaric anoxia test in mice (survival time). Conditions: ratio of DL50/DE50 of the product to DL50/DE50 of vincamine; DE50 = dose raising mean survival time by 50 %; p.o. 30 min before test; 190 mm Hg (5,25 % oxygen). It counts as in vivo. The method, then: Des souris de même sexe, de souche Charles River, pesant environ 20 + 2 g sont réparties en trois lots de 10 animaux. Les lots 1 et 2 comportent les animaux traités, c'est à dire ayant reçu la substance à tester de l'invention. Un troisième lot comporte des animaux témoins.
Les composés étudiés sont administrés p.o. 30 minutes avant l'essai. Les animaux sont placés dans une atmosphère appauvrie en oxygène par réalisation d'un vide partiel (190 mm Hg, correspondant à 5,25 % d'oxygène), ces conditions étant obtenues en 30 secondes). On mesure le temps de survie des souris au moyen d'un chronomètre. Les agents capables de favoriser l'oxygénation tissulaire et en particulier cérébrale, entraînent un accroissement du temps de survie et l'on peut exprimer par la dose efficace 50 % (DE50), la dose qui augmente de 50 % le temps de survie moyen des animaux placés dans les conditions décrites ci-dessus.
L'indice vincaminique correspond au rapport de la ^DL50/D^E50 du produit à la DL5ODE50 de la vincamine. Le tableau suivant rassemble les doses léthales et les indices vincaminiques observés pour divers composés de la présente invention.

Series [3] has as its system monoamine oxydase. Briefly: Monoamine oxidase inhibitor (IMAO) character, method not described.
The subject of series [4] is ptose palpébrale induite par la réserpine. Briefly: Reserpine-induced palpebral ptosis test in mice. It counts as in vivo, souris. Conditions: mouse. The text has this:
Le canthène Ib s'est en outre révélé très actif au test à la ptose palpébrale induite par la réserpine che la souris. […] La combinaison des propriétés antianoxiques et antidépressives confèrent aux composés de l'invention un intérêt thérapeutique original.

Series [5] deals with chien anesthésié au Nembutal. In words: Haemodynamics and cerebral oxygen consumption in the dog anaesthetised with Nembutal. It is filed as in vivo. An excerpt: Chez le chien anesthésié au Nembutal, les composés de l'invention, en particulier Ib', augmentent les débits sanguins artériels des artères fémorales et vertébrales et stimulent de façon marquée (+ 50 %) la consommation apparente du cerveau en oxygène. L'effet sur la fréquence cardiaque est par ailleurs peu marqué, contrairement au cas de la vincamine.

Each structure is given as a SMILES string.

Turning to `CCN1CCc2c3n(c4ccccc24)C(O)CCC31` (stereo not shown) [Exemple 2, Hydroxy-6 éthyl-3 1,2,3,3a,4,5 hexahydro 6H indolo (3, 2,1, -de) 1,5 naphtyridine], the LD50 in series [1] was found to be 21 mg/kg. For the same compound, the ind.vincam. hypobare in series [2] is reported as 2.
As to `CCN1CCc2c3n(c4ccccc24)C=CCC31` (stereo not shown) [Exemple 3, Ethyl-3 tétrahydro-1,2,3,3a 4H indolo (3,2,1-de) 1,5 naphtyridine], the “caractéristique d'inhibiteur de monoamine oxydase (IMAO)” value in series [3] is given as “aucune caractéristique d'inhibiteur de monoamine oxydase”. Besides, the LD50 in series [1] stood at 46 mg/kg. For the same compound, in series [4], the “test à la ptose palpébrale induite par la réserpine” value was “très actif”. The “débits sanguins artériels des artères fémorales et vertébrales” value in series [5] is recorded as “augmentent”. In series [5] (stated in contrast to vincamine), the “effet sur la fréquence cardiaque” value is given as “peu marqué”. Besides, in series [2], the ind.vincam. hypobare was 2 (Ib').
Turning to `CCN1CCc2c3n(c4ccccc24)CCCC31` (stereo not shown) [Exemple 4, Ethyl-3 hexahydro-1,2,3,3a,4,5-6H indolo (3,2,1-de) 1,5 naphtyridine], in series [1], the LD50 was 14 mg/kg. Besides, the ind.vincam. hypobare in series [2] stood at 2.
